Source: patent publication US8741836B2, “Polypeptides” (Novo Nordisk A/S, priority 2011, dated 2014)
Starred links: 1 amine or outer side, 2 acyl side, 3 side chain; linkers in the order of their positions; H or OH if unused. Positions of bridges follow the written chain, without caps; N, C: chain ends. Residues, ends and D or L forms follow the SMILES beside them. *: point of attachment. C20 diacid = O=C(O)CCCCCCCCCCCCCCCCCCC(=O)*; C18 diacid = O=C(O)CCCCCCCCCCCCCCCCC(=O)*; γGlu = O=C(O)[C@H](CCC(=O)[*:2])N[*:1]

Test: Assay (III) ThT fibrillation assay for physical stability
Type: physicochemical
Details: for ThT pH 4.0 lag time: pH 4.0, ThT fibrillation assay
In short: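 Freshly prepared, pH-adjusted formulations with 1 μM ThT incubated at 37 °C under 960 rpm orbital shaking (1 mm), fluorescence (ex 444, em 485 nm) read every 20 min. […] Peptide content before and after measured by reverse-phase HPLC against pramlintide standard.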

SMILES | ThT pH 4.0 lag time | ThT pH 4.0 lag time (physical stability in fibrillogenesis assay)
CC[C@H](C)[C@H](NC(=O)[C@@H]1CCCN1C(=O)CNC(=O)[C@H](Cc1ccccc1)NC(=O)[C@H](CC(N)=O)NC(=O)[C@H](CC(N)=O)NC(=O)[C@H](CO)NC(=O)[C@H](CO)NC(=O)[C@H](Cc1c[nH]cn1)NC(=O)[C@H](Cc1c[nH]cn1)NC(=O)[C@H](CC(C)C)NC(=O)[C@H](Cc1ccccc1)NC(=O)[C@H](CCC(=O)O)NC(=O)[C@H](C)NC(=O)[C@H](CC(C)C)NC(=O)[C@H](CCCNC(=N)N)NC(=O)[C@H](CCC(N)=O)NC(=O)[C@@H](NC(=O)[C@H](C)NC(=O)[C@@H]1CSSC[C@H](NC(=O)[C@H](Cc2c[nH]cn2)NC(=O)CC[C@H](NC(=O)CCCCCCCCCCCCCCCCCCC(=O)O)C(=O)O)C(=O)N[C@@H](CC(N)=O)C(=O)N[C@@H]([C@@H](C)O)C(=O)N[C@@H](C)C(=O)N[C@@H]([C@@H](C)O)C(=O)N1)[C@@H](C)O)C(=O)N[C@@H](CC(C)C)C(=O)N1CCC[C@H]1C(=O)N1CCC[C@H]1C(=O)N[C@H](C(=O)N[C@@H](CC(N)=O)C(=O)N[C@H](C(=O)NCC(=O)N[C@@H](CO)C(=O)N[C@@H](Cc1c[nH]cn1)C(=O)N[C@H](C(=O)N[C@@H](Cc1ccc(O)cc1)C(N)=O)[C@@H](C)O)C(C)C)[C@@H](C)O [Example 76, N-alpha-[(S)-4-Carboxy-4-(19-carboxynonadecanoylamino)butyryl]-[His1,Glu14,His17,His35]-pramlintide] ({C20 diacid-γGlu}-HCNTATCATQRLAEFLHHSSNNFGPILPPTNVGSHTY-NH2; disulfide 2-7) | >45 h | –
CC[C@H](C)[C@H](NC(=O)[C@@H]1CCCN1C(=O)CNC(=O)[C@H](Cc1ccccc1)NC(=O)[C@H](CC(N)=O)NC(=O)[C@H](CCC(N)=O)NC(=O)[C@H](CO)NC(=O)[C@H](CO)NC(=O)[C@H](Cc1c[nH]cn1)NC(=O)[C@H](CCCNC(=N)N)NC(=O)[C@H](CC(C)C)NC(=O)[C@H](Cc1ccccc1)NC(=O)[C@H](CCC(=O)O)NC(=O)[C@H](C)NC(=O)[C@H](CC(C)C)NC(=O)[C@H](CCCNC(=N)N)NC(=O)[C@H](CCC(N)=O)NC(=O)[C@@H](NC(=O)[C@H](C)NC(=O)[C@@H]1CSSC[C@H](NC(=O)[C@H](CCC(=O)O)NC(=O)[C@H](CCCNC(=N)N)NC(=O)[C@H](CCC(=O)O)NC(=O)CC[C@H](NC(=O)CCCCCCCCCCCCCCCCCCC(=O)O)C(=O)O)C(=O)N[C@@H](CC(N)=O)C(=O)N[C@@H]([C@@H](C)O)C(=O)N[C@@H](C)C(=O)N[C@@H]([C@@H](C)O)C(=O)N1)[C@@H](C)O)C(=O)N[C@@H](CC(C)C)C(=O)N1CCC[C@H]1C(=O)N1CCC[C@H]1C(=O)N[C@H](C(=O)N[C@@H](CC(N)=O)C(=O)N[C@H](C(=O)NCC(=O)N[C@@H](CO)C(=O)N[C@@H](CC(N)=O)C(=O)N[C@H](C(=O)N1CCC[C@H]1C(N)=O)[C@@H](C)O)C(C)C)[C@@H](C)O [Example 161, N-alpha-[(S)-4-Carboxy-4-(19-carboxynonadecanoylamino)butyryl]-Glu-Arg-[Glu1,Glu14,Arg17,Gln21,Pro37]-pramlintide] ({C20 diacid-γGlu}-ERECNTATCATQRLAEFLRHSSQNFGPILPPTNVGSNTP-NH2; disulfide 4-9 (inferred)) | >45 h | >45 h
CC[C@H](C)[C@H](NC(=O)[C@@H]1CCCN1C(=O)CNC(=O)[C@H](Cc1ccccc1)NC(=O)[C@H](CC(N)=O)NC(=O)[C@H](CCC(N)=O)NC(=O)[C@H](CO)NC(=O)[C@H](CO)NC(=O)[C@H](Cc1c[nH]cn1)NC(=O)[C@H](Cc1c[nH]cn1)NC(=O)[C@H](CC(C)C)NC(=O)[C@H](Cc1ccccc1)NC(=O)[C@H](CCC(=O)O)NC(=O)[C@H](C)NC(=O)[C@H](CC(C)C)NC(=O)[C@H](CCCNC(=N)N)NC(=O)[C@H](CCC(N)=O)NC(=O)[C@@H](NC(=O)[C@H](C)NC(=O)[C@@H]1CSSC[C@H](NC(=O)[C@H](CCCCN)NC(=O)CC[C@H](NC(=O)CCCCCCCCCCCCCCCCCCC(=O)O)C(=O)O)C(=O)N[C@@H](CC(N)=O)C(=O)N[C@@H]([C@@H](C)O)C(=O)N[C@@H](C)C(=O)N[C@@H]([C@@H](C)O)C(=O)N1)[C@@H](C)O)C(=O)N[C@@H](CC(C)C)C(=O)N1CCC[C@H]1C(=O)N1CCC[C@H]1C(=O)N[C@H](C(=O)N[C@@H](CC(N)=O)C(=O)N[C@H](C(=O)NCC(=O)N[C@@H](CO)C(=O)N[C@@H](CCC(N)=O)C(=O)N[C@H](C(=O)N1CCC[C@H]1C(N)=O)[C@@H](C)O)C(C)C)[C@@H](C)O [Example 136, N-alpha-[(S)-4-Carboxy-4-(19-carboxynonadecanoylamino)butyryl]-[Glu14,His17,Gln21,Gln35,Pro37]-pramlintide] ({C20 diacid-γGlu}-KCNTATCATQRLAEFLHHSSQNFGPILPPTNVGSQTP-NH2; disulfide 2-7 (inferred)) | >45 h | >45 h
CC[C@H](C)[C@H](NC(=O)[C@@H]1CCCN1C(=O)CNC(=O)[C@H](Cc1ccccc1)NC(=O)[C@H](CC(N)=O)NC(=O)[C@H](CC(N)=O)NC(=O)[C@H](CO)NC(=O)[C@H](CO)NC(=O)[C@H](Cc1c[nH]cn1)NC(=O)[C@H](Cc1c[nH]cn1)NC(=O)[C@H](CC(C)C)NC(=O)[C@H](Cc1ccccc1)NC(=O)[C@H](CCC(=O)O)NC(=O)[C@H](C)NC(=O)[C@H](CC(C)C)NC(=O)[C@H](CCCNC(=N)N)NC(=O)[C@H](CCC(N)=O)NC(=O)[C@@H](NC(=O)[C@H](C)NC(=O)[C@@H]1CSSC[C@H](NC(=O)[C@H](CCCCN)NC(=O)[C@H](Cc2c[nH]cn2)NC(=O)CC[C@H](NC(=O)CCCCCCCCCCCCCCCCC(=O)O)C(=O)O)C(=O)N[C@@H](CC(N)=O)C(=O)N[C@@H]([C@@H](C)O)C(=O)N[C@@H](C)C(=O)N[C@@H]([C@@H](C)O)C(=O)N1)[C@@H](C)O)C(=O)N[C@@H](CC(C)C)C(=O)N1CCC[C@H]1C(=O)N1CCC[C@H]1C(=O)N[C@H](C(=O)N[C@@H](CC(N)=O)C(=O)N[C@H](C(=O)NCC(=O)N[C@@H](CO)C(=O)N[C@@H](Cc1c[nH]cn1)C(=O)N[C@H](C(=O)N[C@@H](Cc1ccc(O)cc1)C(N)=O)[C@@H](C)O)C(C)C)[C@@H](C)O [Example 70, N-alpha-[(S)-4-Carboxy-4-(17-carboxyheptadecanoylamino)butyryl]-His-[Glu14,His17,His35]-pramlintide] ({C18 diacid-γGlu}-HKCNTATCATQRLAEFLHHSSNNFGPILPPTNVGSHTY-NH2; disulfide 3-8 (inferred)) | >45 h | –
CC[C@H](C)[C@H](NC(=O)[C@@H]1CCCN1C(=O)CNC(=O)[C@H](Cc1ccccc1)NC(=O)[C@H](CC(N)=O)NC(=O)[C@H](CC(N)=O)NC(=O)[C@H](CO)NC(=O)[C@H](CO)NC(=O)[C@H](Cc1c[nH]cn1)NC(=O)[C@H](Cc1c[nH]cn1)NC(=O)[C@H](CC(C)C)NC(=O)[C@H](Cc1ccccc1)NC(=O)[C@H](CCC(=O)O)NC(=O)[C@H](C)NC(=O)[C@H](CC(C)C)NC(=O)[C@H](CCCNC(=N)N)NC(=O)[C@H](CCC(N)=O)NC(=O)[C@@H](NC(=O)[C@H](C)NC(=O)[C@@H]1CSSC[C@H](NC(=O)[C@H](CCCCN)NC(=O)[C@H](CO)NC(=O)CC[C@H](NC(=O)CCCCCCCCCCCCCCCCCCC(=O)O)C(=O)O)C(=O)N[C@@H](CC(N)=O)C(=O)N[C@@H]([C@@H](C)O)C(=O)N[C@@H](C)C(=O)N[C@@H]([C@@H](C)O)C(=O)N1)[C@@H](C)O)C(=O)N[C@@H](CC(C)C)C(=O)N1CCC[C@H]1C(=O)N1CCC[C@H]1C(=O)N[C@H](C(=O)N[C@@H](CC(N)=O)C(=O)N[C@H](C(=O)NCC(=O)N[C@@H](CO)C(=O)N[C@@H](Cc1c[nH]cn1)C(=O)N[C@H](C(=O)N[C@@H](Cc1ccc(O)cc1)C(N)=O)[C@@H](C)O)C(C)C)[C@@H](C)O [Example 85, N-alpha-[(S)-4-Carboxy-4-(19-carboxynonadecanoylamino)butyryl]-Ser-[Glu14,His17,His35]-pramlintide] ({C20 diacid-γGlu}-SKCNTATCATQRLAEFLHHSSNNFGPILPPTNVGSHTY-NH2; disulfide 3-8) | >45 h | –
CC[C@H](C)[C@H](NC(=O)[C@@H]1CCCN1C(=O)CNC(=O)[C@H](Cc1ccccc1)NC(=O)[C@H](CC(N)=O)NC(=O)[C@H](CC(N)=O)NC(=O)[C@H](CO)NC(=O)[C@H](CO)NC(=O)[C@H](Cc1c[nH]cn1)NC(=O)[C@H](Cc1c[nH]cn1)NC(=O)[C@H](CC(C)C)NC(=O)[C@H](Cc1ccccc1)NC(=O)[C@H](CCC(=O)O)NC(=O)[C@H](C)NC(=O)[C@H](CC(C)C)NC(=O)[C@H](CCCNC(=N)N)NC(=O)[C@H](CCC(N)=O)NC(=O)[C@@H](NC(=O)[C@H](C)NC(=O)[C@@H]1CSSC[C@H](NC(=O)CC[C@H](NC(=O)CCCCCCCCCCCCCCCCCCC(=O)O)C(=O)O)C(=O)N[C@@H](CC(N)=O)C(=O)N[C@@H]([C@@H](C)O)C(=O)N[C@@H](C)C(=O)N[C@@H]([C@@H](C)O)C(=O)N1)[C@@H](C)O)C(=O)N[C@@H](CC(C)C)C(=O)N1CCC[C@H]1C(=O)N1CCC[C@H]1C(=O)N[C@H](C(=O)N[C@@H](CC(N)=O)C(=O)N[C@H](C(=O)NCC(=O)N[C@@H](CO)C(=O)N[C@@H](Cc1c[nH]cn1)C(=O)N[C@H](C(=O)N[C@@H](Cc1ccc(O)cc1)C(N)=O)[C@@H](C)O)C(C)C)[C@@H](C)O [Example 75, N-alpha-[(S)-4-Carboxy-4-(19-carboxynonadecanoylamino)butyryl]-[des1,Glu14,His17,His35]-pramlintide] ({C20 diacid-γGlu}-CNTATCATQRLAEFLHHSSNNFGPILPPTNVGSHTY-NH2; disulfide 1-6) | 28 h | –
